Data published in ChEMBL document CHEMBL1123772, “2,4-Diamino-6,7-dimethoxyquinazolines. 2. 2-(4-Carbamoylpiperidino) derivatives as alpha 1-adrenoceptor antagonists and antihypertensive agents” (J Med Chem, 1987).
Activity calls are given as the source filed them. No cut-off for these calls is given here.

biological target: Adrenergic receptor alpha-2 (Rattus norvegicus) (UniProt P22086+P19328+P22909); test: In vitro binding affinity determined for alpha-2 adrenergic receptor by the percentage displacement of [3H]- clonidine at 10e-6 M; Not active :Less than 50% activity.; format: protein assay; settings: not given

Row | SMILES | Displacement [%]
1 | CCN(CC)C(=O)C1CCCN(c2nc(N)c3cc(OC)c(OC)cc3n2)C1 (centres undefined) | < 50
2 | COc1cc2nc(N3CCC(C(=O)NC4CCCC4)CC3)nc(N)c2cc1OC | < 50
3 | CCNC(=O)C1CCN(c2nc(N)c3cc(OC)c(OC)cc3n2)CC1 | < 50
4 | COc1cc2nc(N3CCC(C(=O)N4CCOCC4)CC3)nc(N)c2cc1OC | < 50
5 | CCCCNC(=O)C1CCCN(c2nc(N)c3cc(OC)c(OC)cc3n2)C1 (centres undefined) | < 50
6 | COc1cc2nc(N3CCC(C(=O)Nc4ccccc4)CC3)nc(N)c2cc1OC | < 50
7 | COCCNC(=O)C1CCN(c2nc(N)c3cc(OC)c(OC)cc3n2)CC1 | < 50
8 | CCN(CC)C(=O)C1CCN(c2nc(N)c3cc(OC)c(OC)cc3n2)CC1 | < 50
9 | COc1cc2nc(N3CCC(C(=O)NCCO)CC3)nc(N)c2cc1OC | < 50
10 | COc1cc2nc(N3CCC(C(=O)NCC4CC4)CC3)nc(N)c2cc1OC | < 50

biological target: T1, Adrenergic receptor alpha-1 (Rattus norvegicus, UniProt P15823+P23944+P43140); test: In vitro binding affinity determined for alpha-1 adrenergic receptor by the displacement of [3H]- prazosin.; format: protein assay; settings: not given
T1 sequence (P15823 whole entry): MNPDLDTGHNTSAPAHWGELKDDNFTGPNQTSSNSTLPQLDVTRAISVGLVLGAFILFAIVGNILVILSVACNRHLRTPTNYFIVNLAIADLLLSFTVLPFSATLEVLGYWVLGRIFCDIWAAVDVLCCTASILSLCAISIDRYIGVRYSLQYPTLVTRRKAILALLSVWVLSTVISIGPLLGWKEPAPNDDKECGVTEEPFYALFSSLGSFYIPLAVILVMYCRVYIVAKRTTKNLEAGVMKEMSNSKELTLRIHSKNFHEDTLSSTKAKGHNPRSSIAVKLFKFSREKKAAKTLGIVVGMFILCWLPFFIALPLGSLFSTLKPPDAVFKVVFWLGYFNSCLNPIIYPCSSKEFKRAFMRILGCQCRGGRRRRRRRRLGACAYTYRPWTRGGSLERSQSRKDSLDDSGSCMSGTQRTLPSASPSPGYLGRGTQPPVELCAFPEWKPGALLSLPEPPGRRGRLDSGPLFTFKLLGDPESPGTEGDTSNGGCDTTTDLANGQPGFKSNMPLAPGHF
T1 sequence (P23944 whole entry): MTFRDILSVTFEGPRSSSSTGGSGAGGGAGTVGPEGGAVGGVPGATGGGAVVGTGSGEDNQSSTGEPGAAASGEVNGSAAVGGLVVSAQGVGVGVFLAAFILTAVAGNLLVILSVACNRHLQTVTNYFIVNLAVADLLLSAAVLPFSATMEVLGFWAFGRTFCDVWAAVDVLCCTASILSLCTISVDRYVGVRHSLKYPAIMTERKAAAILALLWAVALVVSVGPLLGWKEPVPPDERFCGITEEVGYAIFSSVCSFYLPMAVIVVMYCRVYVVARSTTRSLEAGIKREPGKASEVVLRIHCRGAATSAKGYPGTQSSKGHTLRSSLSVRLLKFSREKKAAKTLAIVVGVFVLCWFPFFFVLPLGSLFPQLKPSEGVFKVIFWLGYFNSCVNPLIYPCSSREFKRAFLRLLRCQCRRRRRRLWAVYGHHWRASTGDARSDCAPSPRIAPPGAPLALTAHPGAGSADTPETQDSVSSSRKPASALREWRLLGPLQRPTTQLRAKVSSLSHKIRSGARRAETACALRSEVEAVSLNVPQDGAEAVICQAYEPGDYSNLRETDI
T1 sequence (P43140 whole entry): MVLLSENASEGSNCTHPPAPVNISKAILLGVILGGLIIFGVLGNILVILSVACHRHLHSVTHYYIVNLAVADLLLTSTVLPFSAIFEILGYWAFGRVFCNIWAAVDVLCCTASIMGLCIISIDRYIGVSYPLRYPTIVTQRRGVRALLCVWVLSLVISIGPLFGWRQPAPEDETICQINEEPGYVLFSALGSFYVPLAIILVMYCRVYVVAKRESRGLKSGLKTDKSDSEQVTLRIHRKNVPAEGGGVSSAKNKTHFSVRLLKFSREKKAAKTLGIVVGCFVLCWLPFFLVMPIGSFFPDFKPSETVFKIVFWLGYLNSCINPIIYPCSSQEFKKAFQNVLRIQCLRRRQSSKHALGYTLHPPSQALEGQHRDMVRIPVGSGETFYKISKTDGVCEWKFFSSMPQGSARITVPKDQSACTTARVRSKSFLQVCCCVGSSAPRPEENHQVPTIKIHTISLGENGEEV

Row | SMILES | Ki [nM]
11 | CCN(CC)C(=O)C1CCCN(c2nc(N)c3cc(OC)c(OC)cc3n2)C1 (centres undefined) | 116.73
12 | CCCNC(=O)CC1CCN(c2nc(N)c3cc(OC)c(OC)cc3n2)CC1 | 0.65
13 | CCCCNC(=O)C1CCN(c2nc(N)c3cc(OC)c(OC)cc3n2)CC1 | 0.67
14 | COc1cc2nc(N3CCC(C(=O)NC4CCCC4)CC3)nc(N)c2cc1OC | 0.63
15 | CCNC(=O)C1CCN(c2nc(N)c3cc(OC)c(OC)cc3n2)CC1 | 1.64
16 | COc1cc2nc(N3CCC(C(=O)N4CCOCC4)CC3)nc(N)c2cc1OC | 1.14
17 | CCCCNC(=O)C1CCCN(c2nc(N)c3cc(OC)c(OC)cc3n2)C1 (centres undefined) | 8.25
18 | CCCCNC(=O)COC1CCN(c2nc(N)c3cc(OC)c(OC)cc3n2)CC1 | 0.79
19 | CCCCNC(=O)CC1CCN(c2nc(N)c3cc(OC)c(OC)cc3n2)CC1 | 1.4
20 | COc1cc2nc(N3CCC(C(=O)Nc4ccccc4)CC3)nc(N)c2cc1OC | 0.47
21 | COc1cc2nc(N3CCC(C(=O)NCCc4ccccc4)CC3)nc(N)c2cc1OC | 0.1
22 | COCCNC(=O)C1CCN(c2nc(N)c3cc(OC)c(OC)cc3n2)CC1 | 1.13
23 | CCCCNC(=O)CCC1CCN(c2nc(N)c3cc(OC)c(OC)cc3n2)CC1 | 0.47
24 | COc1cc2nc(N3CCC(C(=O)NCc4ccccc4)CC3)nc(N)c2cc1OC | 0.22
25 | COc1cc2nc(N3CCC(CC(=O)NCC4CC4)CC3)nc(N)c2cc1OC | 1.08
26 | CCN(CC)C(=O)C1CCN(c2nc(N)c3cc(OC)c(OC)cc3n2)CC1 | 1.11
27 | COc1cc2nc(N3CCC(C(=O)NCCO)CC3)nc(N)c2cc1OC | 1.73
28 | COc1cc2nc(N3CCC(C(=O)N(C)Cc4ccccc4)CC3)nc(N)c2cc1OC | 0.2
29 | COc1cc2nc(N3CCC(C(N)=O)CC3)nc(N)c2cc1OC | 1.46
30 | COc1cc2nc(N3CCC(C(=O)NCC4CC4)CC3)nc(N)c2cc1OC | 0.9
31 | COc1cc2nc(N3CCC(C(=O)NCCOc4ccccc4)CC3)nc(N)c2cc1OC | 0.42

tested on: Adrenergic receptor alpha-2 (Oryctolagus cuniculus); test: Competitive antagonist activity of the pre junctional alpha-2 adrenergic receptor mediated vasoconstrictor action of norepinephrine expressed as concentration producing 40% reduction in contractile response at 10e-5 M; No activity; settings: not given

Row | SMILES | EC40
32 | CCCNC(=O)CC1CCN(c2nc(N)c3cc(OC)c(OC)cc3n2)CC1 | inactive
33 | COc1cc2nc(N3CCC(CC(=O)NCC4CC4)CC3)nc(N)c2cc1OC | inactive

biological target: Adrenergic receptor alpha; test: Tested for functional alpha-antagonist activity against norepinephrine in rabbit aorta and pulmonary artery.; format: tissue-based, Oryctolagus cuniculus; settings: not given

Row | SMILES | pA2
34 | CCCNC(=O)CC1CCN(c2nc(N)c3cc(OC)c(OC)cc3n2)CC1 | 7.42
35 | COc1cc2nc(N3CCC(CC(=O)NCC4CC4)CC3)nc(N)c2cc1OC | 7.25

tested on: Adrenergic receptor alpha-1 (Oryctolagus cuniculus); test: not given; settings: not given

Row | SMILES | EC40 [nM]
36 | CCCNC(=O)CC1CCN(c2nc(N)c3cc(OC)c(OC)cc3n2)CC1 | 18
37 | COc1cc2nc(N3CCC(CC(=O)NCC4CC4)CC3)nc(N)c2cc1OC | 97

tested on: Rattus norvegicus; test: Antihypertensive activity determined in spontaneously hypertensive rats(SHR) by percent reduction in blood pressure at 5 mg/kg peroral administration at 4 hour; format: functional; settings: route oral

Row | SMILES | Reduction [%]
38 | CCN(CC)C(=O)C1CCCN(c2nc(N)c3cc(OC)c(OC)cc3n2)C1 (centres undefined) | 16
39 | COc1cc2nc(N3CCC(C(=O)NCCO)CC3)nc(N)c2cc1OC | 5
